Reference: patent publication US9539191B2, “Composition for cosmetic use suitable to produce a pigmentation effect on hair” (Giuliani S.P.A., priority 2013, dated 2017)

Legend:
[1] = test system: Tyrosinase; test: Enzymatic assay of tyrosinase (L-tyrosine substrate, absorbance 280 nm); type: biochemical; conditions: compound 5 mM; for Increment in enzymatic activity (%): % enzymatic activity - 100; for Enzymatic activity (%): compared to activity of the enzyme without active compounds (100%)
Description: The following compounds with formulae (II), (III), (IV) and (V) were tested as defined above, all in a concentration of 5 mM:
Tyrosinase is a membrane glycoprotein that is expressed in melanosomes, specialised organelles in the endocytic pathway through which the synthesis and assembly of melanin takes place. The synthesis of melanin from tyrosine takes place in pigment-producing cells, namely melanocytes. Melanin produced in melanosomes is transferred to keratinocytes through said processes. Melanin is a polymer that absorbs light within a broad spectrum of wavelengths, and protects keratinocytes from the harmful effects of UV radiations. A peroxidase is involved in the first phase of the reaction, which converts the amino acid into […] alanine or DOPA. The enzyme tyrosinase is involved in the subsequent phase of the biosynthesis pathway that produces dopaquinone. Melanin is synthesised starting from precursors of tyrosine and DOPA, through the enzyme tyrosinase, which presents both […] and oxidase functions. Tyrosine is converted into L-DOPA (dihydroxyphenylalanine) and, then, into dopaquinone, which is red, until the brown melanin polymer is obtained. In a first branch of the pathway dopaquinone is converted into black polymeric melanins, while the reaction with cysteine forms a series of polymers that are similar among them and are called red polymeric melanins.
REAGENT A (potassium phosphate buffer, 50 mM, pH 6.5, 25° C.):
REGENT B (L-tyrosine solution 1 mM):
REAGENT C (tyrosinase solution):
Prepare a solution A+B as described below:
10 mL of Reagent A (potassium phosphate buffer 50 mM)
10 mL of Reagent B (L-tyrosine 1 mM)
Vortex the solution and, if necessary, restore pH 6.5, at 25° C. with HCl 1M or NaOH.
Prepare the solutions with the various concentrations of the compounds to be tested, and preserve at 4° C. until use.
Defrost the tyrosinase solution and keep it on ice in the dark until use.
Mix, at ambient temperature, the solution of potassium phosphate buffer (50 mM, pH 6.5), the above solution A+B and the solutions that include the compounds of the formula (I) to be tested.
Use the following parameters:
Measuring mode: absorbance;
Execution settings: 700 seconds.
First read the enzymatic activity of tyrosinase when there is only L-tyrosine to verify the actual enzyme/mL units and have a basic reference to later assess the effects of the compound examined on enzyme activity:
1 replicates for the blank test (one blank test for each concentration to be tested);
2 replicates for the test (one test for each concentration to be tested).
Prepare the mixtures in separate cuvettes, as described below:
Test the examined compounds with formulae (II), (III), (IV) and (V), as specified below: […]
Calculating the Inhibition or Induction of Enzymatic Activity
[formula] df=dilution factor (30 because 0.1 mL/3 mL tot) 0.001=change of A280 nm/min per unit of L-tyrosine at pH 6.5, 25° C. in a 3 mL reaction mixture; 0.1=volume (mL) of enzyme used Unit/mg solid=unit/mL of enzyme: mg solid/mL of enzyme Unit/mg protein=unit/mL of enzyme: mg protein/mL of enzyme Definition of unit=increment of A280 nm/min equal to 0.001, at 25° C., pH 6.5 in a 3 mL reaction volume containing L-tyrosine.
The percentage of enzymatic activity was calculated for each tested compound, compared to the activity of the enzyme (100% enzymatic activity) failing the presence of active compounds.
The increment percentage of enzymatic activity was later calculated (% enzymatic activity−100).

[2] = test system: Hair follicles (HF) in anagen phase VI with normal pigmentation; test: Hair pigmentation in organ-cultured human hair follicles (quantitative Masson-Fontana melanin stain); type: cell-based
Description: The skin of the normal human scalp was taken from a person who was submitted to routine facial lifting surgery, after obtaining their informed consent. All experiments were performed in compliance with the Helsinki principles, with the Ethics Committee approval.
N^1-methyl-spermidine in the invention or the carrier as such (control group) were administered once every time the culture medium was changed, namely every 48 hours. The control compound administered was spermidine at a concentration of 0.5 μM.
The Masson-Fontana stain was administered to ensure histochemical visibility of melanin in frozen sections. Melanin was stained as brown granules and the degree of pigmentation was assessed with the quantitative Masson-Fontana technique. (Ito N., Ito T., Kromminga A., Bettermann A., Takigawa M., Kees F., Straub R. H., and Paus R. (2005): Human hair follicles display a functional equivalent of the hypothalamic-pituitary-adrenal axis and synthesise cortisol. (FASEB J 19, 1332-4)
This method is a highly sensitive and reliable indicator of variations in melanin synthesis, as proven by assays of enzymatic activity, and the expression of standard tyrosinase. […]
The intensity of the stain was analysed in a defined reference region of the hair follicle's pigmentation unit using the software ImageJ (National Institute of Health).

Compound	Increment in enzymatic activity (%) [1] [%]	Enzymatic activity (%) [1] [%]	absolute pigmentation intensity in hair follicles compared to spermidine (Spd) ([2]; 0.5 μM vs spermidine 0.5 μM, FIG. 1)	melanin produced / (absolute) intensity of pigmentation in hair follicles compared to carrier ([2]; 0.5 and 1.5 μM, administered every 48 hours, Masson-Fontana stain, FIGS. 1 and 2)
NCCCNCCCCNC1CCCCC1 [Cyclohexyl-spermidine, N-(3-aminopropyl)-N^1-cyclohexyl-1,4-butandiammine]	35.31	135.31	–	–
CNCCCCNCCCN [Methyl-spermidine, N-(3-aminopropyl)-N^1-methyl-1,4-butandiammine]	5.16	105.16	higher increase in absolute pigmentation intensity	increase in melanin produced
CCCNCCCCNCCCN [Propyl-spermidine, N-(3-aminopropyl)-N^1-propyl-1,4-butandiammine]	31.29	131.29	–	–
CCNCCCCNCCCN [Ethyl-spermidine, N-(3-aminopropyl)-N^1-ethyl-1,4-butandiammine]	21.50	121.50	–	–
